Experiment [1] deals with T1, VKOR (Homo sapiens, UniProt Q9BQB6).
T1 construct: from tissue; host or cells: patients on warfarin (in vivo); genomic DNA from whole blood
Nature of the experiment: Correlation of VKOR gene SNPs with warfarin maintenance dose in patients. The format is in vivo. The text has this: The most prevalent isoform of the VKOR gene is about 4 kb long, has three exons and encodes an enzyme of 163 amino acids with a mass of 18.4 kDa.
Subjects were obtained from the UNC Coagulation Clinic in the Ambulatory Care Center. Informed consent was obtained by a trained genetic counselor. Subjects not fluent in English were excluded because of the lack of translators and the requirement for consent.
Genomic DNAs were extracted from the whole blood of subjects using QIAamp DNA Blood Mini Kit (QIAGEN cat#51104). The DNA concentration was adjusted to 10 ng/μL.
Approximately 10 ng of DNA was used for polymerase chain reaction (PCR) assays. The primers used to amplify the VKOR gene were: Exon 1-5′ […] (SEQ ID NO:29) and Exon 1-3′ […] (SEQ ID NO:30) for the 5′-UTR and Exon 1 region; Exon 2-5′ […] (SEQ ID NO:31) and Exon 2-3′ […] (SEQ ID NO:32) for the Exon 2 region; and Exon 3-5′ […] (SEQ ID NO:33) and Exon 3-3′ […] (SEQ ID NO:34) for the Exon3 and 3′-UTR region. Automated high throughput capillary electrophoresis DNA sequencing was used for detecting SNPs in the VKOR gene.
The assay reagents for SNP genotyping were from the Assay-by-Design™ service (Applied Biosystems, cat#4332072). The primers and probes (FAM™ and VIC™ dye-labeled) were designed using Primer Express software and were synthesized in an Applied Biosystems synthesizer. The primer pairs for each SNP are located at the upstream/downstream position of the SNP site and can generate less than 100 bp length of a DNA fragment in the PCR reaction. The FAM™ and VIC™ dye-labeled probes were designed to cover the SNP sites with a length of 15-16 nt.
The 2× TaqMan™ Universal PCR Master Mix, No AmpErase UNG (Applied Biosystems, cat#4324018) was used in the PCR reactions. Forty cycles of real-time PCR were performed in an Opticon II (MJ Research) machine. There was a 10 minute 95° C. preheat followed by 92° C. for 15 sec, 60° C. for 1 min. and then a plate reading. The results were read according to the signal value of FAM and VIC dye.
The difference of average dose between different genotypes was compared by analysis of variance (ANOVA) using SAS version 8.0 (SAS, Inc., Cary, N.C.). A two-sided p value less than 0.05 was considered significant.
Each marker was first analyzed independently.
The three VKOR SNPs are located within 2 kb distance of one another and are expected to be closely linked.

Experiment [2] concerns the target T1, VKOR. Nature of the experiment: Warfarin sensitivity of VKOR (mGC11276) expressed in Sf9 insect cells. In kind it is biochemical. Here is the method: FIG. 4. VKOR activity was detected when mGC_11276 was expressed in Sf9 insect cells. ˜1×10^6 cells were used in this assay. […] Blank Sf9 cells served as a negative control and A549 cells as a reference.
siRNA transfected A549 cells were trypsinized and washed twice with cold PBS. 1.5×10^7 cells were taken for each VKOR assay. 200 μL buffer D (250 mM Na2HPO4—NaH2PO4, 500 mM KCI, 20% glycerol and 0.75% CHAPS, pH 7.4) was added to the cell pellet, followed by sonication of the cell lysate. For assays of solubilized microsomes, microsomes were prepared from 2×10^9 cells as described (Lin et al. (2002) “The putative vitamin K-dependent gamma-glutamyl carboxylase internal propeptide appears to be the propeptide binding site” J Biol Chem 277:28584-91); 10 to 50 μL of solubilized microsomes were used for each assay. Vitamin K epoxide was added to the concentration indicated in the figure legends and DTT was added to 4 mM to initiate the reaction. […] 500 μL hexane was added and the mixture was vortexed vigorously for 1 minute to extract the vitamin K and KO. After 5 minutes centrifugation, the upper organic layer was transferred to a 5-mL brown vial and dried with N2. 150 μL HPLC buffer, acetonitrile:isopropanol:water (100:7:2), was added to dissolve the vitamin K and KO and the sample was analyzed by HPLC on an A C-18 column (Vydac, cat#218TP54). […]

T1 sequence (Q9BQB6 whole entry): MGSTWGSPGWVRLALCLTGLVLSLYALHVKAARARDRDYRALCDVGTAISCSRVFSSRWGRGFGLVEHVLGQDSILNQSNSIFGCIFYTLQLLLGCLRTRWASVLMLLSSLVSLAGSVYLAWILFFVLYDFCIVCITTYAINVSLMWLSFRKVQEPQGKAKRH

Regarding `CC(=O)CC(c1ccccc1)c1c(O)c2ccccc2oc1=O` (stereo not shown) [warfarin], the average warfarin dose on VKOR [1] (patients heterozygous for vk2581, n=17) was determined as 35.19±3.73 mg per week; on VKOR [1] (patients heterozygous for vk3294, n=25) it was 41.68±4.92 mg per week; at VKOR [1] (patients heterozygous for vk4769, n=19), 44.48±4.80 mg per week; on VKOR [1] (patients homozygous for vk2581, n=15), 31.14±6.2 mg per week; at VKOR [1] (patients homozygous for vk3294, n=22), 47.73±2.75 mg per week; on VKOR [1] (patients homozygous for vk4769, n=12) it was 47.56±3.86 mg per week. The average warfarin dose on VKOR [1] (patients with vk2581 wild type allele, n=26) is 50.19±3.20 mg per week; on VKOR [1] (patients with vk4769 SNP wild type, n=27), 35.35±4.01 mg per week; on VKOR [1] (patients with wild-type vk3294 allele, n=11), 25.29±3.05 mg per week. In addition, the warfarin dosage on VKOR [1] (patients with haplotype aaBBCC) amounted to 25.29±3.05; at VKOR [1] (subjects with haplotype AAbbcc, n=7) it was 48.98±3.93. Moreover, the “warfarin sensitivity of VKOR activity” value at VKOR [2] (Sf9 cells transfected with mGC11276 cDNA) is “warfarin sensitive”; at VKOR [2] (microsomes from Sf9 cells expressing VKOR, 60 μM KO, 30° C., 15 minutes) it was “warfarin-sensitive”.

Values taken from patent US9441208B2, “Methods and compositions for producing vitamin K dependent proteins” (The University of North Carolina at Chapel Hill, priority 2003, dated 2016).
